Data taken from patent US8431593B2, “Heteroaryl amide derivatives” (H. Lundbeck A/S, priority 2006, dated 2013).
pIC50: −log10 of the molar value. Like-named read-outs stand apart in the source and are kept apart here. Each block holds one compound with its values, some of them ahead of it.

Molecular target: T1, P2X7 receptor (Homo sapiens, UniProt Q99572)
T1 construct: host or cells: SH-SY5Y
T1 sequence (Q99572 1-595): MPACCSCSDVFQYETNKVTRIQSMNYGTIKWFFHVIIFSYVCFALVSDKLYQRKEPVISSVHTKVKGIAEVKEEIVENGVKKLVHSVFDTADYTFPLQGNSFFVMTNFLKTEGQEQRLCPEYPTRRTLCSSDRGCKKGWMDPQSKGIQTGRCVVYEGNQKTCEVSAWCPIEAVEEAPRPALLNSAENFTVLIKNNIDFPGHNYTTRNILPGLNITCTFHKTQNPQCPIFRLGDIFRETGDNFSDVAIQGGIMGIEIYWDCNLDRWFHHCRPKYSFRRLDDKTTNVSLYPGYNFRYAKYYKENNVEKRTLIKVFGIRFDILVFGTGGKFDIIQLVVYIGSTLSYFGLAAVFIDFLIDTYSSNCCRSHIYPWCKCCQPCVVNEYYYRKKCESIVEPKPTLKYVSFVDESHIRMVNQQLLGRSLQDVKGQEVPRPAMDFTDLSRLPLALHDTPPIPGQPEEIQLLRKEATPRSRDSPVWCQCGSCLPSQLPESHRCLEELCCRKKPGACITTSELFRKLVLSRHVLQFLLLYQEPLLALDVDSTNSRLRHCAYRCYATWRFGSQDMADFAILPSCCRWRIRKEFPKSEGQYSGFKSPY
Assay: P2X7 calcium mobilization assay, high throughput, antagonist activity (Example 4A)
Assay type: cell-based
Summary of the method: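 FLIPR^TETRA calcium read-out: maximum RFU per well minus average no-agonist control, with agonist wells giving the average positive maximum. Cells seeded at 100,000/well one day ahead, dye-loaded 1 h, rinsed, then exposed to compound for 1 h at room temperature.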

[1] = 50% decrease in the fluorescence response of cells exposed to 80 μM of 2′(3′)-O-(4-benzoyl-benzoyl)adenosine 5′-triphosphate, Example 4A, read-out: IC50
[2] = 50% decrease in the fluorescence response of cells exposed to 80 μM 2′(3′)-O-(4-benzoyl-benzoyl)adenosine 5′-triphosphate, Example 4A, read-out: IC50
[3] = fluorescence response of cells exposed to 80 μM 2′(3′)-O-(4-benzoyl-benzoyl)adenosine 5′-triphosphate, Example 4A, read-out: IC50
[4] = 50% decrease in the fluorescence response of cells exposed to 80 μM of 2′(3′)-O-(4-benzoyl-benzoyl)adenosine 5′-triphosphate, determined as in Example 4A, read-out: IC50
[5] = SH-SY5Y cells, 50% decrease in fluorescence response to 80 μM BzATP, read-out: IC50
[6] = P2X7 calcium mobilization, Example 4A, 50% decrease in the fluorescence response of cells exposed to 80 μM of (2′(3′)-O-(4-benzoyl-benzoyl)adenosine 5′-triphosephate), read-out: IC50

pIC50 [1]: > 5.70
Structure (SMILES): CC(C(=O)N1CCC[C@@H](N)C1)c1cn2c(C(=O)NCC34CC5CC(CC(C5)C3)C4)cccc2n1 (stereo partly drawn) [Compound 751, N-(adamantan-1-ylmethyl)-2-[2-(3-aminopiperidin-1-yl)-1-methyl-2-oxoethyl]imidazo [1,2-a]pyridine-5-carboxamide]

pIC50 [2]: > 5.70
Structure (SMILES): CCCCN(C)C(=O)c1cn2c(C(=O)NC[C@@H]3CC[C@H]4C[C@@H]3C4(C)C)cccc2n1 [Compound 471, 2-N-butyl-5-N-{[(1S,2R,5S)-6,6-dimethylbicyclo[3.1.1]hept-2-yl]methyl}-2-N-methylimidazo[1,2-a]pyridine-2,5-dicarboxamide]

pIC50 [3]: > 5.70
Structure (SMILES): COC[C@@H]1CCCN1C(=O)c1cn2c(C(=O)NCC(CC(C)C)c3ccccc3)cccc2n1 (stereo partly drawn) [Compound 257, 2-{[(2S)-2-(methoxymethyl)pyrrolidin-1-yl]carbonyl)-N-(4-methyl-2-phenylpentyl)imidazo [1,2-a]pyridine-5-carboxamide]

pIC50 [1]: > 5.70
Structure (SMILES): N[C@H]1CCN(C(=O)c2cn3c(C(=O)NCC45CC6CC(CC(C6)C4)C5)cccc3n2)C1 [Compound 629, N-(adamantan-1-ylmethyl)-2-{[(3S)-3-aminopyrrolidin-1-yl]carbonyl}imidazo[1,2-a]pyridine-5-carboxamide]

pIC50 [4]: > 5.70
Structure (SMILES): COC1CCN(C(=O)Cc2cn3c(C(=O)NCC4(c5ccc(C(F)(F)F)cc5)CCCCC4)cccc3n2)CC1 [Compound 896, 2-[2-(4-methoxypiperidin-1 yl)-2-oxoethyl]-N-({1-[4-(trifluoromethyl)phenyl]cyclohexyl}methyl) imidazo[1,2-a] pyridine-5-carboxamide]

pIC50 [1]: > 5.70
Structure (SMILES): CC(C)CC(CNC(=O)c1cccc2nc(CN3CC[C@@H](N)C3)cn12)C1CCCCC1 (stereo partly drawn) [Compound 739, 2-[(3-aminopyrrolidin-1-yl)methyl]-N-(2-cyclohaxyl-4-methylpentyl)imidazo [1,2-a]pyridine-5-carboxamide]

pIC50 [3]: > 5.70
Structure (SMILES): O=C(NCC12CC3CC(CC(C3)C1)C2)c1cccc2nc(CN3CCCC(F)(F)C3)cn12 [Compound 288, N-(adamantan-1-ylmethyl)-2-[(3,3-difluoropiperidin-1-yl)methyl]imidazo[1,2-a]pyridine-5-carboxamide]

pIC50 [4]: > 5.70
Structure (SMILES): O=C(Cc1cn2c(C(=O)NCC3(c4ccc(C(F)(F)F)cc4)CCCCC3)cccc2n1)NCC1CC1 [Compound 860, 2-{2-[(cyclopropylmethyl)amino]-2-oxoethyl}-N-({1-[4-(trifluoromethyl)phenyl]cyclohexyl}methyl) imidazo[1,2-a] pyridine-5-carboxamide]

pIC50 [2]: > 5.70
Structure (SMILES): CCCN(CC1CC1)C(=O)c1cn2c(C(=O)NC[C@@H]3CC[C@H]4C[C@@H]3C4(C)C)cccc2n1 [Compound 474, 2-N-(cyclopropylmethyl)-5-N-{[(1S,2R,5S)-6,6-dimethylbicyclo[3.1.1]hept-2-yl]methyl}-2-N-propylimidazo[1,2-a]pyridine-2,5-dicarboxamide]

pIC50 [3]: > 5.70
Structure (SMILES): COC[C@@H]1CCCN1C(=O)c1cn2c(NC(=O)CC34CC5CC(CC(C5)C3)C4)cccc2n1 [Compound 371, 2-adamantan-1-yl-N-(2-{[(2S)-2-(methoxymethyl)pyrrolidin-1-yl]carbonyl}imidazo [1,2-a]pyridin-5-yl)acetamide]

pIC50 [5]: > 5.70
Structure (SMILES): O=C(NCC12CC3CC(CC(C3)C1)C2)c1cccc2nc(CN3CC[C@@H](N(CCO)CCO)C3)cn12 [Compound 197, N-(adamantan-1-ylmethyl)-2-({(3R)-3-[bis(2-hydroxy-ethyl)amino]pyrrolidin-1-yl}methyl)imidazo[1,2-a]pyridine-5-carboxamide]

pIC50 [4]: > 5.70
Structure (SMILES): O=C(Cc1cn2c(C(=O)NCC3(c4ccc(Cl)cc4)CCOCC3)cccc2n1)NCC(F)(F)F [Compound 872, N-{[4-(4-chlorophenyl)tetrahydro-2H-pyran-4-yl]methyl}-2-{2-oxo-2-[(2,2,2-trifluoroethyl)amino]ethyl}imidazo [1,2-a]pyridine-5-carboxamide]

pIC50 [6]: > 5.70
Structure (SMILES): CCOC(=O)c1cn2cc(C(=O)NCC34CC5CC(CC(C5)C3)C4)ccc2n1 [Compound 1061, ethyl 6-[(adamantan-1-ylmethyl)carbamoyl] imidazo [1,2-a]pyridine-2-carboxylate]

pIC50 [4]: > 5.70
Structure (SMILES): CC(C)CC(CNC(=O)c1cccc2nc(C(Cc3ccc(Cl)cc3)C(=O)O)cn12)c1ccc(Cl)cc1 (stereo not drawn) [Compound 940, 3-(4-chlorophenyl)-2-(5-{[2-(4-chlorophenyl)-4-methylpentyl]carbamoyl}imidazo[1,2-a]pyridin-2-yl) propanoic acid]

pIC50 [1]: > 5.70
Structure (SMILES): Cn1ncc2c1CCN(C(=O)c1cn3c(C(=O)NCC45CC6CC(CC(C6)C4)C5)cccc3n1)C2 [Compound 723, N-(adamantan-1-ylmethyl)-2-[(1-methyl-1,4,6,7-tetrahydro-5H-pyrazolo[4,3-c]pyridin-5-yl)carbonyl]imidazo[1,2-a]pyridine-5-carboxamide]

pIC50 [4]: > 5.70
Structure (SMILES): O=C(NCC1(c2ccc(C(F)(F)F)cc2)CCCCC1)c1cccc2nc(CC(=O)N3CCSCC3)cn12 [Compound 889, 2-(2-oxo-2-thiomorpholin-4-ylethy)-N-({1-[4-(trifluoromethyl)phenyl]cyclohexyl}methyl) imidazo[1,2-a] pyridine-5-carboxamide]

pIC50 [6]: > 5.70
Structure (SMILES): CC(C)CC(CNC(=O)c1cccc2nccn12)c1ccc(C(F)(F)F)nc1 (stereo not drawn) [Compound 1051, N-{4-methyl-2-[6-(trifluoromethyl)pyridin-3-yl]pentyl} imidazo[1,2-a]pyridine-5-carboxamide]

pIC50 [5]: > 5.70
Structure (SMILES): COCCC1CCCN(C(=O)Cc2cn3c(C(=O)NCC45CC6CC(CC(C6)C4)C5)cccc3n2)C1 (stereo not drawn) [Compound 178, N-(adamantan-1-ylmethyl)-2-{2-[3-(2-methoxyethyl)piperidin-1-yl]-2-oxoethyl}imidazo[1,2-a]pyridine-5-carboxamide]

pIC50 [3]: > 5.70
Structure (SMILES): CC(C)CC(CNC(=O)c1cccc2nc(CC(=O)NCC(F)(F)F)cn12)c1ccccc1 (stereo not drawn) [Compound 229, N-(4-methyl-2-phenylpentyl)-2-{2-oxo-2-[(2,2,2-trifluoroethyl)amino]ethyl}imidazo[1,2-a]pyridine-5-carboxamide]

pIC50 [4]: > 5.70
Structure (SMILES): O=C(NCC12CC3CC(CC(C3)C1)C2)c1cccc2nc([C@H]3CC[C@@H](C(=O)O)CC3)cn12 [Compound 954, cis-4-{5-[(adamantan-1-ylmethyl)carbamoyl]imidazo[1,2-a]pyridin-2-yl} cyclohexane-carboxylic acid]

pIC50 [1]: > 5.70
Structure (SMILES): CCN(CC)CCN(C)C(=O)c1cn2c(C(=O)NCC34CC5CC(CC(C5)C3)C4)cccc2n1 [Compound 675, 5-N-(adamantan-1-ylmethyl)-2-N-[2-(diethylamino)ethyl]-2-N-methylimidazo[1,2-a]pyridine-2,5-dicarboxamide]

Structure (SMILES): O=C(NCC12CC3CC(CC(C3)C1)C2)c1cccc2nc(CCO)cn12 [Compound 6, N-(adamantan-1-ylmethyl)-2-(2-hydroxyethyl)imi-dazo[1,2-a]pyridine-5-carboxamide]
pIC50: > 5.70

pIC50 [4]: > 5.70
Structure (SMILES): O=C(O)CCc1cn2c(C(=O)NCC3(c4ccc(C(F)(F)F)cc4)CCCCC3)cccc2n1 [Compound 941, 3-{5-[({1-[4-(trifluoromethyl)phenyl]cyclohexyl}methyl)carbamoyl]imidazo [1,2-a]pyridin-2-yl}propanoic acid]

Structure (SMILES): CC(C)CC(CNC(=O)c1cccc2nc(CC(=O)N3CCCC(N(C)C)C3)cn12)c1ccc(Cl)cc1 (stereo not drawn) [Compound 792, N-[2-(4-chlorophenyl)-4-methylpentyl]-2-{2-[3-(dimethylamino)piperidin-1-yl]-2-oxoethyl} imidazo[1,2-a] pyridine-5-carboxamide]
pIC50 [1]: > 5.70

pIC50 [3]: > 5.70
Structure (SMILES): Cc1cc(-c2cn3c(C(=O)NCC45CC6CC(CC(C6)C4)C5)cccc3n2)n(CCO)n1 [Compound 339, N-(adamantan-1-ylmethyl)-2-[1-(2-hydroxyethyl)-3-methyl-1H-pyrazol-5-yl]imidazo[1,2-a]pyridine-5-carboxamide]

pIC50 [4]: > 5.70
Structure (SMILES): O=C(O)Cc1cn2c(C(=O)NCC3(c4ccc(Cl)cc4)CCCCC3)cccc2n1 [Compound 949, [5-({[1-(4-chlorophenyl)cyclohexyl]methyl}carbamoyl)imidazo[1,2-a]pyridin-2-yl]acetic acid]

pIC50 [3]: > 5.70
Structure (SMILES): O=C(CC12CC3CC(CC(C3)C1)C2)Nc1cccc2nc(C(=O)N3CCOCC3)cn12 [Compound 364, 2-adamantan-1-yl-N-[2-(morpholin-4-ylcarbonyl)imidazo[1,2-a]pyridin-5-yl]acetamide]
